US10004703B2, “Treatment of alzheimer's disease using compounds that reduce the activity of non-selective CA++ activated ATP-sensitive cation channels regulated by SUR1 channels” (Biogen Chesapeake LLC, priority 2006, dated 2018)

What was measured:
[1] = Exemplary case: AD patient given daily glibenclamide by monthly depot intramuscular injection, neurological testing; assay type: in vivo, human; conditions: person with AD; 1.0 mg per day via monthly depot intramuscular injection
Description: The following exemplary descriptions illustrate ways to implement the methods and treatments disclosed herein. […] A diagnosis of AD is made as other causes are ruled out. […] Depot injection is chosen in order to optimize patient compliance.

[2] = Exemplary case: type 2 diabetic patient with AD given daily glibenclamide, metformin ceased; assay type: in vivo, human; conditions: 10 mg per day
Description: The following exemplary descriptions illustrate ways to implement the methods and treatments disclosed herein.
A type 2 diabetic […] presents to their family physician with complaints of forgetfulness and increasing confusion. They are being treated with metformin and diet controls for their Type 2 diabetes. The patient is diagnosed with AD upon referral to a geriatrician and upon clinical, laboratory and imaging investigations.

SMILES: COc1ccc(Cl)cc1C(=O)NCCc1ccc(S(=O)(=O)NC(=O)NC2CCCCC2)cc1 [glibenclamide, 5-chloro-N-[2-[4-(cyclohexylcarbamoylsulfamoyl)phenyl]ethyl]-2-methoxy-benzamide]
- Neurological testing: AD symptoms [1]: stabilization of symptoms
- Blood glucose measurements and HbA1C levels [2]: stable blood glucose measurements and HbA1C levels
- Episodes of forgetfulness [2]: episodes of forgetfulness are waning
